From US20110060268A1, “NAIL TREATMENT DEVICE” (POWER PAPER LTD., priority 2008, published 2011)
Where a name gives a salt, the structure may show the parent alone.

Columns and labels:
Assay type in all cases: in vivo, patients
[1] = Terbinafine content in clipped nail samples by HPLC
Method: Group A was tested with 1% terbinafine HCl and an iontophoretic patch using a constant current density of 100 μA/cm^2. Group B was tested with 1% terbinafine HCl without iontophoresis. Treatment period was overnight wear, every day, five days per week, for 4 weeks. During the treatment period visits were conducted every 10 days (visits 2-4). The follow-up period was 10 weeks from the end of treatment (visit 5). At each visit nail photography and KOH examination were performed. Routine blood test; complete blood count and liver functions tests were performed at the before study initiation, at the end of the treatment and at the end of the follow-up period. Terbinafine content in affected nail samples was determined by clipping nails at visits 4 & 5. Nails were then weighed and cut into symmetric shapes in order to estimate their area. Symmetric shapes of nails were then cut into small pieces and inserted into tubes with 0.5 ml DDW. Subsequently, methanol 0.5 ml was added and tubes were sonicated. The eluted solution was analysed by HPLC.

[2] = tested on: distal and lateral subungual toenail onychomycosis; test: Clinical trial in toenail onychomycosis: healthy toenail growth
Method: (§1) A clinical trial was conducted to evaluate delivery of terbinafine HCl with an iontophoretic device according to an aspect of the present invention in patients with toenail onychomycosis. 38 patients suffering from distal and lateral subungual toenail onychomycosis were enrolled into the study and were divided randomly into group A (20 subjects) and group B (18 subjects). Onychomycosis was confirmed by both KOH examination and mycological culture, wherein samples were taken from the distal parts of the nail. Nail samples were divided, one part being used for direct KOH examination and the second part for fungal culture using Sabouraud's Dextrose agar (Novamed, Jerusalem, Israel). The identification of the fungus was done on the basis of morphologic characteristics. Group A was tested with 1% terbinafine HCl and an iontophoretic patch using a constant current density of 100 μA/cm^2. Group B was tested with 1% terbinafine HCl without iontophoresis. Treatment period was overnight wear, every day, five days per week, for 4 weeks. During the treatment period visits were conducted every 10 days (visits 2-4). The follow-up period was 10 weeks from the end of treatment (visit 5). At each visit nail photography and KOH examination were performed. […] Terbinafine content in affected nail samples was determined by clipping nails at visits 4 & 5. […] The eluted solution was analysed by HPLC.

[3] = tested on: fungal elements (KOH) in nail specimens; test: Clinical trial in toenail onychomycosis: KOH examination for fungal elements in nail specimens; details: 10 weeks following completion of treatment
Method: as §1

[4] = Clinical trial: safety and tolerability of iontophoretic terbinafine delivery; details: terbinafine delivered into the nail with the iontophoretic device, nail onychomycosis
Method: as §1

Terbinafine nail content ([1]; end of follow up period (visit 5), active group A (iontophoretic patch)): 2.41 μg/cm^2
Terbinafine nail content ([1]; end of follow up period (visit 5), passive group B (without iontophoresis)): 0.15 μg/cm^2
Terbinafine nail content ([1]; visit 4, passive group B (without iontophoresis)): 1.34 μg/cm^2
Compound: CN(C/C=C/C#CC(C)(C)C)Cc1cccc2ccccc12 [terbinafine, terbinafine HCl]
percentage of patients having healthy toenail growth above 1.5 mm at the end of treatment ([2]; group A: 1% terbinafine HCl with iontophoretic patch, constant current density 100 μA/cm^2, 4 weeks): 40%
percentage of patients having healthy toenail growth above 1.5 mm at the end of treatment ([2]; passive group B: 1% terbinafine HCl without current, 4 weeks): 11%
percentage of patients having fungal elements (KOH) in nail specimens ([3]; active group A (iontophoretic patch, 100 μA/cm^2)): 15%
percentage of patients having fungal elements (KOH) in nail specimens ([3]; passive group B (without iontophoresis)): 53%
safety and tolerability [4]: safe and well tolerated
